These results are taken from ChEMBL document CHEMBL2448809, “UCSF DeRisi Lab MMV Box Apicoplast Screening”.

The assay deals with Plasmodium falciparum. Nature of the assay: MMV: Compounds (1uM) were screened in a 72hr growth assay monitored by flow cytometry both in the presence and absence of supplemental isopentenyl pyrophosphate (IPP) 200uM. Compounds which fail to show anti-malarial activity when chemically rescued by IPP are therefore specific to the apicoplast. The values are expressed as the ratio of the corresponding activity with and without IPP, respectively. The format is functional, W2. (In general: In flow cytometry, cells or beads pass a laser one at a time.)
For `COc1ccc2c(c1)C1(Nc3ccccc3-c3nc4ccccc4n31)C(=O)N2` (configuration not stated), the Ratio is on record as 0.9667. With `COc1cccc(Cn2c(Oc3ccccc3)nc3c2c(=O)n(C)c(=O)n3C)c1` the figure was 0.9255.

`CCOc1cc(CNC(C)C(O)c2ccccc2)cc(Cl)c1OCC` (configuration not stated): the Ratio is reported as 0.8833. Consider `CCOc1c(Cl)cc(CNCC(O)c2ccccc2)cc1OC` (configuration not stated), for which the Ratio was determined as 0.8286. With `OC(CNCC1CCCO1)Cn1c2ccc(Cl)cc2c2cc(Cl)ccc21` (configuration not stated) the figure was 0.8732. In the case of `COc1ccc2nc(C)cc(Nc3ccccc3O)c2c1` it was 0.7711. With `CCn1nc(-c2ccc(C(=O)OC)cc2)nc2c(=O)n(C)c(=O)nc1-2` the figure was 1.058. Turning to `CCOc1ccccc1CN1CCc2nc3cc(C(C)(C)C)nn3c(O)c2C1`, the Ratio stood at 0.8444. With `Cc1cc(N2CCCC2)nc(Nc2ccc(NC(=O)CCc3ccccc3)cc2)n1`, the Ratio stood at 0.9077. As for `Cc1cc(NC(=O)c2cccc(C(F)(F)F)c2)n(-c2nc(-c3ccc4c(c3)OCO4)cs2)n1`, the Ratio came out at 0.8908. In the case of `CN1CCN(c2ncnc3c2[nH]c2ccc(Cl)cc23)CC1` it was 0.9492; in that of `CC1(c2ccccc2)Nc2ccccc2-c2nc3ccccc3n21` (configuration not stated), 1.062.

`COc1cccc(C2(C)Nc3ccccc3-c3nc4ccccc4n32)c1` (configuration not stated): the Ratio is listed as 1.163.

On to `CC(C)CNC(=O)c1c(N)n(CCc2ccccc2F)c2nc3ccccc3nc12`, for which the Ratio is 0.63. With `CC(C)(C)CC(C)(C)NCC(O)COc1ccc(Cl)cc1Cl` (configuration not stated), the Ratio is recorded as 0.8983.

In the case of `Cc1cccc(-n2ncc3c(O)nc(-n4nc(C)cc4NC(=O)c4cc5ccccc5o4)nc32)c1`, the Ratio worked out at 0.6055. Turning to `O=C(Nc1ccc(Br)cc1)Nc1cccc(Cl)c1`, the Ratio was found to be 1.104. Turning to `CN(C)CCNc1cc(-c2ccccc2)nc2ccccc12`, the Ratio is on record as 1.015. For the compound `COCCNCC(O)Cn1c2ccc(Cl)cc2c2cc(Cl)ccc21` (configuration not stated), the Ratio came to 0.88.

On to `COc1ccc2nc(C)cc(Nc3ccc(Cl)cc3)c2c1`, for which the Ratio worked out at 0.8189. As to `O=C(NC1CCN(Cc2ccccc2)CC1)c1cc(-c2ccncc2)nc2ccc(Cl)cc12`, the Ratio was 0.7749.

For the compound `CCC(O)c1ccc(Br)cc1NC(=O)c1cccc(Cl)c1` (configuration not stated), the Ratio is 1. `COc1ccc2nc(C)cc(Nc3cccc(O)c3)c2c1.Cl`: the Ratio was 1.191.

For `COc1cc2cc(C(=O)Nc3ccccc3)c(N)nc2cc1OC`, the Ratio came out at 1.031. In the case of `CN(C)CCCNCc1ccc(-c2ccc(F)c(Cl)c2)o1.Cl`, the Ratio is recorded as 0.75. In the case of `Cc1sc2ncnc(Sc3nc4ccccc4[nH]3)c2c1C` it was 0.9273. In the case of `O=C(O)C(=O)O.Oc1ccccc1CN1CCN(C(c2ccccc2)c2ccccc2)CC1`, the Ratio turned out to be 1.068. As for `CC(=O)Nc1nnc(SCc2c(C)cc(C(C)(C)C)cc2C)s1`, the Ratio is 0.8169. With `O=C(Nc1ccc(CN2CCOCC2)cc1)c1ccc(-c2cc(Cl)ccc2Cl)o1` the figure was 0.9054; with `Cc1cc(Nc2cccc(F)c2)nc(NCc2ccccc2)n1`, 0.8333.

As to `CCOc1ccc(C2N(C)c3ccccc3N2C)cc1`, the Ratio is 0.8372.

As to `COc1cccc(C(=O)Nc2ccc(-c3nc4ccccc4[nH]3)cc2)c1`, the Ratio was determined as 0.7651. In the case of `COCCn1c(C)nc2ccccc2c1=O`, the Ratio worked out at 0.9589. As for `O=C(Nc1cccc(-c2nc3ccccc3[nH]2)c1)c1cccc(NC(=O)c2ccco2)c1`, the Ratio came out at 0.6407. Consider `O=C(NC1CCN(Cc2ccccc2)CC1)c1cc(-c2cccnc2)nc2ccc(Cl)cc12`, for which the Ratio stood at 0.7184.

Regarding `CCN(Cc1ccccc1)C1CCN(Cc2cc(Br)ccc2O)CC1.O=C(O)C(=O)O`, the Ratio worked out at 0.9701. In the case of `COc1nc(Nc2ccc(C(C)C)cc2)nc(OC)n1` it was 0.9479; in that of `CCN(CC)CCNc1ncnc2c1[nH]c1ccc(Br)cc12`, 0.9508; in that of `CCOc1cccc(C(=O)Nc2ccc(-c3nc4ccccc4[nH]3)cc2)c1`, 1.322. On to `Cl.Clc1cc(Br)ccc1-c1ccc(CNCC2CCNCC2)o1`, for which the Ratio came to 1.173. As to `CCOc1ccccc1NC(=O)CN1CCN(C(=O)c2ccco2)CC1`, the Ratio worked out at 0.906. In the case of `COc1ccc(-c2nonc2NC(=O)c2cccc(Cl)c2)cc1OC` it was 0.9; in that of `Cc1cc(NC(=O)c2ccc(-c3ccccc3)cc2)no1`, 0.9841; in that of `O=C(Nc1ccc(N2CCN(Cc3ccccc3)CC2)cc1)c1cccs1.O=C(O)C(F)(F)F`, 0.8148. With `O=C(Nc1ccc(N2CCCCC2)c(Cl)c1)c1ccc(Br)o1`, the Ratio came out at 0.8784.

Take `CCOc1cc2c(cc1OCC)C(c1cc(C)c(O)c(C)c1)NCC2.Cl` (configuration not stated): the Ratio was found to be 1.148.

Regarding `O=C1CC(O)(C(F)(F)C(F)(F)F)Oc2ccccc21` (configuration not stated), the Ratio amounted to 0.8205. With `COc1cc(SC)ccc1C(=O)N1CCCC(C)C1` (configuration not stated) the figure was 0.6888; with `CC(C)c1ccc(CNCC(O)c2ccccc2)cc1.Cl` (configuration not stated), 0.9296.

For the compound `CC1CC(C)CN(C(=O)c2ccc(Cl)cc2Cl)C1` (configuration not stated), the Ratio is 0.6364. In the case of `OC(CNC1CCCC1)Cn1c2ccccc2c2ccccc21` (configuration not stated) it was 1.151. In the case of `Cc1ccc(NC(=O)Nc2cccc(Cl)c2)cc1F` it was 0.9455. With `O=C(O)C(=O)O.Oc1ccc(Br)cc1CN1CCN(Cc2cccc(F)c2)CC1` the figure was 0.8333; with `O=c1nc(C=Cc2ccc(Cl)cc2)oc2ccccc12`, 0.9697; with `O=C(NCc1ccco1)C1CCN(S(=O)(=O)c2ccc(Br)cc2)CC1`, 0.7733. For `CN(C)c1ccc(N2C(N)=NC(N)=NC2(C)C)cc1`, the Ratio is reported as 0.7632.

Take `Clc1ccc2[nH]c3c(NCCCN4CCOCC4)ncnc3c2c1`: the Ratio came to 0.9836.

As for `COc1ccc(Nc2nc(NCc3ccccc3)c3ccccc3n2)cc1`, the Ratio was 1.093. Take `COc1cc2c(cc1OC)C1=NNC(=O)C1=NC(C)(C)C2`: the Ratio worked out at 1.994. With `Oc1c(CN2CCN(c3ccccc3F)CC2)cc(Br)c2cccnc12` the figure was 0.8919; with `Oc1c2c(nc3cc(-c4ccccc4)nn13)CCCC2`, 0.8046; with `CCCCc1c(C)nc2c(OC)cccc2c1O`, 0.8472. In the case of `Clc1ccc2c(N3CCCC3)ccnc2c1` it was 0.8475; in that of `CCOC(=O)C1CCN(C(=O)CN2C(=O)c3ccccc3C2c2c[nH]c3ccccc23)CC1` (configuration not stated), 0.6812. In the case of `CCOc1ccc(CCNC(=O)c2cccs2)cc1OCC` it was 1.073. Turning to `Cc1cc(N2CCN(C3CCCC3)CC2)n2c(nc3ccccc32)c1C#N`, the Ratio is 0.7364. Take `O=c1c2c([nH]c3ccccc13)CCCC2`: the Ratio was determined as 0.8986. In the case of `CCCCOc1ccc(C(=O)Nc2cc(C)on2)cc1`, the Ratio is recorded as 0.9875.

Regarding `CCc1ccc(Nc2cc(C)nc3nc(C)nn23)cc1`, the Ratio amounted to 0.9802.

For `Br.CCN(CC)S(=O)(=O)c1ccc(-c2csc(Nc3ccc(C)c(C)c3)n2)cc1`, the Ratio is listed as 0.8. With `Cc1c(C)n(CC(O)CNC2CCCCC2C)c2ccccc12` (configuration not stated) the figure was 0.9649; with `CCCCN(CCCC)S(=O)(=O)c1ccc(NC(=O)c2ccco2)cc1`, 0.8649.
